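Test compounds were applied to cells in 96-well plates for 48 hours at 5 doses. Here, GI50 denotes the concentration required for 50% inhibition of growth.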 The source made the active and inactive calls. Cut-off read from the data, not from the text of the source: active = GI50 up to about 1.1 µM and inactive = higher.
How the values were obtained:
Test in all cases: NCI tumour cell line growth inhibition, 48 h
[1] = system: ACHN
[2] = system: HCT-116
[3] = system: HL-60
[4] = system: HT-29
[5] = system: Hs-578T
[6] = system: KM12
[7] = system: MDA-N
[8] = system: MOLT-4
[9] = system: NCI-H460
[10] = system: NCI/ADR-RES
[11] = system: OVCAR-3
[12] = system: OVCAR-4
[13] = system: RXF 393
[14] = system: SK-MEL-2
[15] = system: SN12C
[16] = system: SR
[17] = system: SW-620
[18] = system: T47D
[19] = system: TK-10
[20] = system: UACC-257

Measured: GI50

CC(=O)Nc1nc(NC(C)=O)c2nc(CO)[nH]c2n1
inactive: [1] > 100 µM | [2] > 100 µM | [3] > 100 µM | [4] > 100 µM | [5] > 100 µM | [6] > 100 µM | [7] > 100 µM | [8] > 100 µM | [9] > 100 µM | [10] > 100 µM | [11] > 100 µM | [12] > 100 µM | [13] > 100 µM | [14] > 100 µM | [15] > 100 µM | [16] > 100 µM | [17] > 100 µM | [18] > 100 µM | [19] > 100 µM | [20] > 100 µM

CO/N=[N+](\[O-])NC(C)C
inactive: [1] > 100 µM | [2] > 100 µM | [3] > 100 µM | [4] > 100 µM | [5] > 100 µM | [6] > 100 µM | [7] > 100 µM | [8] > 100 µM | [9] > 100 µM | [10] > 100 µM | [11] > 100 µM | [12] > 100 µM | [13] > 100 µM | [14] > 100 µM | [15] > 100 µM | [16] > 100 µM | [17] > 100 µM | [18] > 100 µM | [19] > 100 µM | [20] > 100 µM

CCC(=O)N1C(=O)C(CC)(CC)C(=O)N1C(=O)CC
inactive: [1] > 100 µM | [2] > 100 µM | [3] > 100 µM | [4] > 100 µM | [5] > 100 µM | [6] > 100 µM | [7] > 100 µM | [8] > 100 µM | [9] > 100 µM | [10] > 100 µM | [11] > 100 µM | [12] > 100 µM | [13] > 100 µM | [14] > 100 µM | [15] > 100 µM | [16] > 100 µM | [17] > 100 µM | [18] > 100 µM | [19] > 100 µM | [20] > 100 µM

CCNCCNc1c2ccccc2nc2ccccc12
active: [1] 0.366 µM | [2] 0.515 µM | [4] 0.427 µM | [8] 0.54 µM | [9] 0.453 µM | [15] 0.938 µM | [16] 0.594 µM | [17] 0.147 µM
inactive: [3] 2.24 µM | [5] 1.98 µM | [6] 1.58 µM | [7] 1.28 µM | [10] 2.72 µM | [11] 4.05 µM | [12] 1.14 µM | [13] 1.23 µM | [14] 1.51 µM | [18] 2.38 µM | [19] 2.91 µM | [20] 1.66 µM

O=C(O)c1cc(=O)c2c(OCC(O)COc3cccc4oc(C(=O)O)cc(=O)c34)cccc2o1
inactive: [1] > 100 µM | [2] > 74.8 µM | [3] > 100 µM | [4] > 75.7 µM | [5] > 72.4 µM | [6] > 85.9 µM | [7] > 71.8 µM | [8] > 87.7 µM | [9] > 100 µM | [10] > 100 µM | [11] > 100 µM | [12] > 100 µM | [13] > 100 µM | [14] > 56.4 µM | [15] > 100 µM | [16] > 81.8 µM | [17] > 83 µM | [18] > 100 µM | [19] > 100 µM | [20] > 80.4 µM

Reference: ChEMBL document CHEMBL1201862, “PubChem BioAssay data set” (2004)
